Measured values as given in PMC9873481 (Nature, 2022).
Values belong to the molecule of their own block, whether it stands above or below them.

What was measured:
[1] = biological target: T1, hBest2 (Homo sapiens, UniProt Q8NFU1); test: whole-cell patch clamp, HEK293; assay type: cell-based
T1 sequence (Q8NFU1 1-509): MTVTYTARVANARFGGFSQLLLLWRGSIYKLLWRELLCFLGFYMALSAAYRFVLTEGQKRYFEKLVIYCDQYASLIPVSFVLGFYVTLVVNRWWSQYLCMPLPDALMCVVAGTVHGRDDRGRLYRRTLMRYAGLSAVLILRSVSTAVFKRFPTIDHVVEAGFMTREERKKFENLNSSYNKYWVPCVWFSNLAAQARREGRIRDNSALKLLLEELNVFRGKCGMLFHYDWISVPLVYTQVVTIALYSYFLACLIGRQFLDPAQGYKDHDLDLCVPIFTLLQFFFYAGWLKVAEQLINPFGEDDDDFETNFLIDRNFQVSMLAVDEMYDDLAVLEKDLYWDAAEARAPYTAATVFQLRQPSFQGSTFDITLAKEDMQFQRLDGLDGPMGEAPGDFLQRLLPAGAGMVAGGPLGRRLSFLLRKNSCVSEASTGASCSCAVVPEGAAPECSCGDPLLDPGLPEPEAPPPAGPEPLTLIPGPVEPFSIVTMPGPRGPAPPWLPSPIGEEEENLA

[2] = biological target: the molecule itself; test: cryo-EM structure

EC50 [1]: 46 mM
Molecule: N[C@@H](CCC(=O)O)C(=O)O [glutamate]

B1: bovine bestrophin-2, purified for cryo-EM (GFP-His tag removed) (natural protein)
chain: MTVTYTARVAKARFGGFSKLLLLWRGSIYKLLWRELLCFLGLFMALSAAYRFVLTEEQKRYFEKLVLYCDRYASLIPVSFVLGFYVTLVVHRWWNQYLSMPLTDALMCVVVGTVHGHDERGRLYRRTLMRYAGLSGVLILRSVSTAVFKRFPTIDHVVEAGFMTREERKKFENLNSSYNKYWVPCVWFCNLAAQARREGRIRDNGAFKLLLEELNVFRSKCGMLFHYDWISVPLVYTQVVTIAVYSYFLACLIGRQFLDPAQGYKDHDLDLCVPIFTLLQFFFYAGWLKVAEQLINPFGEDDDDFETNFLIDRCFQVSMLAVDEMYDDLAMLEKDLYWDAAEARAPYTAATAFLMQQPSFQGSTFDITLAKEDMQFQRQDGLEAPLNEAHGDFLQRLLPVGTGMGTGGLL
stoichiometry N [2]: 5
